Experimental data as given in PMC4869175, “Evidence that phytochrome functions as a protein kinase in plant light signalling” (Nature Communications, 2016).

Key:
[1] = target: T1, K411L AsphyA mutant (full-length) (Avena sativa, UniProt P06593, K411L); assay: Photoaffinity labelling with 8-azido-ATP (ATP-binding affinity assay); settings: 5 μM 8-azido-ATP; labelling of WT AsphyA with 5 μM assumed as 100%
T1 construct: After preparing purified full-length AsphyA mutants; made in house; host or cells: Pichia pastoris GS115
T1 sequence (P06593 whole entry K411L): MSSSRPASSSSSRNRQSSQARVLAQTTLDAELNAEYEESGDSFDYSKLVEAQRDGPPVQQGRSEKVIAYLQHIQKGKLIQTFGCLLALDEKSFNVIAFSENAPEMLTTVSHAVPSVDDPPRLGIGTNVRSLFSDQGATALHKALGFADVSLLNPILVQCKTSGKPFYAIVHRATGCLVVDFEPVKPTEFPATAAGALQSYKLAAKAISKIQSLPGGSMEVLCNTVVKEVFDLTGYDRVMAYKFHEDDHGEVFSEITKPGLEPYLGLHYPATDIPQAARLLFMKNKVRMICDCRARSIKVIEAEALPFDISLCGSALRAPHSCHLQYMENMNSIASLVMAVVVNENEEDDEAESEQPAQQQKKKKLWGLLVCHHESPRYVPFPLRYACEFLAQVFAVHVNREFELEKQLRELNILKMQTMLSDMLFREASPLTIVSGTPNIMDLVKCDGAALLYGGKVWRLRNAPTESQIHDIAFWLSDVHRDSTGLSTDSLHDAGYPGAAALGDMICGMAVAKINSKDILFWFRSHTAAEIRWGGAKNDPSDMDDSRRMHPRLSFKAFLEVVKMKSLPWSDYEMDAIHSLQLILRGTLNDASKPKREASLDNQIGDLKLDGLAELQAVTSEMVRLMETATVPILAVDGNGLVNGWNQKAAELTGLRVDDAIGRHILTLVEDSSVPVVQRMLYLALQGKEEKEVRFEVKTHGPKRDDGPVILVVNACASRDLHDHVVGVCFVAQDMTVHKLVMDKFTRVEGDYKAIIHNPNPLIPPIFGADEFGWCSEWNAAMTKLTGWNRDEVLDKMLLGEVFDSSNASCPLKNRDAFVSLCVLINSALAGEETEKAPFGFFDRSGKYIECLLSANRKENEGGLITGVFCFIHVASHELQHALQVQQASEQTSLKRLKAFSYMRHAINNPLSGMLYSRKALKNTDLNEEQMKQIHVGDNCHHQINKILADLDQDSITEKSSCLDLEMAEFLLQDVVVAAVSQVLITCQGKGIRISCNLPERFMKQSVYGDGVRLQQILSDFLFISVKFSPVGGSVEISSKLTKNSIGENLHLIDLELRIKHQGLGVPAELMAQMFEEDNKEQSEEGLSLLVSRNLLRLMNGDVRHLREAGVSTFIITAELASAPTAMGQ
Method: (§1) Figure 4 Phosphorylation analyses of AsphyA mutants with reduced kinase activity. (a) Kinase activity assays of the AsphyA mutants. In all, 1.0 μg of GST/strep-fused PIF3 (∼0.3 μM) was added as a substrate in reaction mixtures with 1.0 μg of either full-length WT or a mutant (K411L, T418D or D422R) AsphyA protein (∼0.2 μM). (b) Protein–protein interaction analysis between PIF3 and the AsphyA kinase mutants. GST was included as a negative control. (c) ATP-binding affinity assays of AsphyA kinase mutants using photoaffinity labelling with 8-azido-ATP. 1.0 μg of full-length AsphyA protein (∼80 nM) was labelled with the indicated concentrations of 8-azido-ATP. The percentages of 8-azido-ATP labeling were obtained where the labelling of WT AsphyA with 5 μM azido-ATP was assumed as 100%. Error bars represent s.d. from three independent measurements.
(§2) To investigate ATP-binding to AsphyA proteins, photoaffinity labelling experiments were carried out using 8-N3-ATP-biotin-long chain-hydrazone (8-azido-ATP), which were purchased from Affinity Labeling Technologies, Inc. Purified phytochrome proteins (1.0 μg) were pre-incubated for 30 min on ice in 50 μl of photoaffinity labelling buffer (20 mM Tris-HCl, pH 7.0, 2 mM EDTA, 2 mM MgCl2 and 150 μM ATP), and then 8-azido-ATP was applied with indicated concentrations. […]
(§3) Supplementary Figure 15. […] Full-length wild-type and mutant AsphyA proteins were labeled with the indicated concentrations of 8-azido-ATP, and the azido-ATP-labeled proteins were detected with avidin-HRP (upper panels).
(§4) Amounts of AsphyA proteins (ca. 1.0 µg) used in these reactions are shown as loading controls in lower panels, which were analyzed using western blots with oat22 antibody.
(§5) Phosphorylation analysis of the D422R mutant of A610 (DR/A610). […] Wild-type (A610) and DR/A610 mutant proteins were labeled with the indicated concentrations of 8-azido-ATP, and the 8-azido-ATP labeled proteins were detected with avidin-HRP (upper panel).

[2] = target: T2, D422R AsphyA mutant (full-length) (Avena sativa, UniProt P06593, D422R); assay: as above; settings: 5 μM 8-azido-ATP; labelling of WT AsphyA with 5 μM assumed as 100%
T2 construct: After preparing purified full-length AsphyA mutants; made in house; host or cells: Pichia pastoris GS115
T2 sequence (P06593 whole entry D422R): as the sequence (P06593 whole entry K411L) above, with L411K, D422R counted along it
Method: as §1, §2, §3, §4, §5

[3] = target: T3, T418D AsphyA mutant (full-length) (Avena sativa, UniProt P06593, T418D); assay: as above; settings: 5 μM 8-azido-ATP; labelling of WT AsphyA with 5 μM assumed as 100%
T3 construct: After preparing purified full-length AsphyA mutants; made in house; host or cells: Pichia pastoris GS115
T3 sequence (P06593 whole entry T418D): as the sequence (P06593 whole entry K411L) above, with L411K, T418D counted along it
Method: as §1, §2, §3, §4, §5

[4] = target: T4, photosensory core of AsphyA (66-610) (Avena sativa, UniProt P06593); assay: Photoaffinity labelling of the photosensory core with 8-azido-ATP and competition by unlabeled ATP; type: binding; settings: 10 μM 8-azido-ATP
T4 construct: the PAS-GAF-PHY photosensory core (66–610aa) were also cloned into pPIC3.5K; made in house; host or cells: Pichia pastoris GS115
T4 sequence (P06593 66-610): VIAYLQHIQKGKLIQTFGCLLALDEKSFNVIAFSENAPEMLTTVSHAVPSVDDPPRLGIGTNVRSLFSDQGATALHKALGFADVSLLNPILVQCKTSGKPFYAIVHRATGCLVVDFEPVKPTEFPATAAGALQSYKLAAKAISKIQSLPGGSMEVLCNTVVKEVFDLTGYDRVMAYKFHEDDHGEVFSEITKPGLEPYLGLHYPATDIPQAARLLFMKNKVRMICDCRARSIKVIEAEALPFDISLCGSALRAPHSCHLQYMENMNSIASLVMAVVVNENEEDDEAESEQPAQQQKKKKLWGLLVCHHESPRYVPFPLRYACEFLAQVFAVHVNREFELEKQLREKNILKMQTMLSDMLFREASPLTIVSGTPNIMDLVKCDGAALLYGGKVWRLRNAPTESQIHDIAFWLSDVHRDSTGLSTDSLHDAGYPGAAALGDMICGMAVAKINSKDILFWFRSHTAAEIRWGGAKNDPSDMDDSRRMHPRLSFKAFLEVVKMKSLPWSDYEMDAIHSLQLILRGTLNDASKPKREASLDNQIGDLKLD
Method: To investigate ATP-binding to AsphyA proteins, photoaffinity labelling experiments were carried out using 8-N3-ATP-biotin-long chain-hydrazone (8-azido-ATP), which were purchased from Affinity Labeling Technologies, Inc. Purified phytochrome proteins (1.0 μg) were pre-incubated for 30 min on ice in 50 μl of photoaffinity labelling buffer (20 mM Tris-HCl, pH 7.0, 2 mM EDTA, 2 mM MgCl2 and 150 μM ATP), and then 8-azido-ATP was applied with indicated concentrations. After incubation for 5 more min on ice, ultraviolet light at 254 nm was then irradiated for 90 s using a hand-held ultraviolet lamp at 4 cm from the surface of the reaction mixtures. Immediately after photoaffinity labelling, reactions were stopped by adding SDS sample buffer, and the 8-azido-ATP-labelled phytochromes were detected with 1:2,000 avidin-HRP (A-115, Boston Biochem). After development, the images were scanned and opened by ImageJ, a Java-based image-processing software, to quantitate the photoaffinity labelling with azido-ATP analogues. Background signal was subtracted before normalization. […]
Supplementary Figure 11. […] 8-azido-ATP labeled proteins were then detected using avidin-HRP. […] The band intensities were quantified using ImageJ software, and the percentages of 8-azido-ATP labeling were normalized to the 66-610 protein signals. […]

| Molecule | 8-azido-ATP labelling, % of the WT AsphyA [1] | 8-azido-ATP labelling, % of the WT AsphyA [2] | 8-azido-ATP labelling, % of the WT AsphyA [3] | photoaffinity labelling of the photosensory core ([4]; UV 90 s, Pr and Pfr forms) | concentration of unlabeled ATP that inhibited 8-azido-ATP photoaffinity labeling ([4]; unlabeled ATP 0-30 mM) |
| --- | --- | --- | --- | --- | --- |
| 8-N3-ATP-biotin-long chain-hydrazone [8-azido-ATP] | ~30% | ~5% | ~17% | labelled | – |
| Nc1ncnc2c1ncn2[C@@H]1O[C@H](COP(=O)(O)OP(=O)(O)OP(=O)(O)O)[C@@H](O)[C@H]1O [ATP] | – | – | – | – | approximately 7.5 mM |
